Assay results reported in patent publication US8664220B2, “Polycyclic compounds as lysophosphatidic acid receptor antagonists” (Amira Pharmaceuticals, Inc., priority 2009, dated 2014).

Molecular target: T1, human LPA1 (Homo sapiens, UniProt Q92633)
T1 construct: the full-length cDNA for human LPA1 was obtained by PCR of the reverse transcription reaction; expressed in transfected cells
Assay: LPA1 calcium flux assay
Format: cell-based
Details: human LPA1 expressing CHO cells, stimulated with 10 nM LPA; read-out: HLPA1 Ca Flux IC50
How it was run: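 CHO cells stably expressing human LPA1, serum-starved overnight and loaded with Calcium 4 dye in HBSS/20 mM Hepes/0.3% fatty-acid-free HSA, 1 h at 37 °C. Compounds pre-incubated 30 min at room temperature, then 10 nM LPA added; intracellular Ca2+ flux measured and IC50 from titration curves.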

T1 sequence (Q92633 whole entry): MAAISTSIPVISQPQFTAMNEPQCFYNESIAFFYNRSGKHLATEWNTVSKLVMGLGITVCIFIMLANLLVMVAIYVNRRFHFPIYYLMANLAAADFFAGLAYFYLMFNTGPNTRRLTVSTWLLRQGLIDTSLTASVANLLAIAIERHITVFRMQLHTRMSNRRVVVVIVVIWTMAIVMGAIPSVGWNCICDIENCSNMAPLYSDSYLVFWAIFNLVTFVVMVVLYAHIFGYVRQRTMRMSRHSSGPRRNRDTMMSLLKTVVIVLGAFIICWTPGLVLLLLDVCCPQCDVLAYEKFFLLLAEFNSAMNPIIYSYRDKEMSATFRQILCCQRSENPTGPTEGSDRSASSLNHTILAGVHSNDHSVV

**Q.** Which IC50 does the source give for `Cc1noc(-c2ccc(-c3ccc(C4(C(=O)O)CC4)cc3)cc2)c1Nc1nnc(Cc2ccccc2)o1` [Compound 1-83, 1-{4′-[4-(5-Benzyl-[1,3,4]oxadiazol-2-ylamino)-3-methyl-isoxazol-5-yl]-biphenyl-4-yl}-cyclopropanecarboxylic acid] here?
**A.** < 300 nM

**Q.** `Cc1noc(-c2ccc(-c3ccc(C4(C(=O)O)CC4)cc3)cc2)c1Cn1cc(-c2ccccc2)cn1` [Compound 1-23, 1-{4′-[3-Methyl-4-(4-phenyl-pyrazol-1-ylmethyl)-isoxazol-5-yl]-biphenyl-4-yl}-cyclopropanecarboxylic acid] was tested. Which IC50 did it give?
**A.** < 300 nM

**Q.** For `Cc1noc(-c2ccc(-c3ccc(C4(C(=O)O)CC4)cc3)cc2)c1C(O)c1cn(Cc2c(F)cccc2Cl)nn1` (centres unmarked) [Compound 1-71, 1-[4′-(4-{[1-(2-Chloro-6-fluoro-benzyl)-1H-[1,2,3]triazol-4-yl]-hydroxy-methyl}-3-methyl-isoxazol-5-yl)-biphenyl-4-yl]-cyclopropanecarboxylic acid], which IC50 is on record?
**A.** < 300 nM

**Q.** How did the IC50 turn out when `Cc1noc(-c2ccc(-c3ccc(C4(C(=O)NS(C)(=O)=O)CC4)cc3)cc2)c1C(O)c1nnc(Cc2ccccc2)o1` (single isomer, unassigned) [Compound 3-2, N-[1-(4′-{4-[(5-Benzyl-[1,3,4]oxadiazol-2-yl)-hydroxy-methyl]-3-methyl-isoxazol-5-yl}-biphenyl-4-yl)-cyclopropanecarbonyl]-methanesulfonamide] was run?
**A.** < 300 nM

**Q.** `Cc1noc(-c2ccc(-c3ccc(C4(CC(=O)O)CC4)cc3)cc2)c1NC(C)c1cc(-c2ccccc2)no1` (single isomer, unassigned) [Compound 1-43, [1-(4′-{3-Methyl-4-[1-(3-phenyl-isoxazol-5-yl)-ethylamino]-isoxazol-5-yl}-biphenyl-4-yl)-cyclopropyl]-acetic acid] was tested. Which IC50 did it give?
**A.** < 300 nM

**Q.** With `Cc1noc(-c2ccc(-c3ccc(C4(C(=O)O)CC4)cc3)cc2)c1C(O)c1nnc(Cc2ccccc2)o1` (single isomer, unassigned) [Compound 1-34, 1-(4′-{4-[(5-Benzyl-[1,3,4]oxadiazol-2-yl)-hydroxy-methyl]-3-methyl-isoxazol-5-yl}-biphenyl-4-yl)-cyclopropanecarboxylic acid] as the compound, how does the IC50 read?
**A.** < 300 nM

**Q.** With `Cc1noc(-c2ccc(-c3ccc(C4(C(=O)O)CC4)cc3)cc2)c1NC1CCCCC1Cc1ccccc1` (centres unmarked) [Compound 1-1, 1-{4′-[4-(2-Benzyl-cyclohexylamino)-3-methyl-isoxazol-5-yl]-biphenyl-4-yl}-cyclopropanecarboxylic acid] as the compound, how does the IC50 read?
**A.** < 300 nM

**Q.** For `Cc1noc(-c2ccc(-c3ccc(C4(C(=O)O)CC4)cc3)cc2)c1Nc1cccc(-c2cccc(Cl)c2)n1` [Compound 1-162, 1-(4′-{4-[6-(3-Chloro-phenyl)-pyridin-2-ylamino]-3-methyl-isoxazol-5-yl}-biphenyl-4-yl)-cyclopropanecarboxylic acid], which IC50 is on record?
**A.** < 300 nM

**Q.** `Cc1noc(-c2ccc(-c3ccc(C4(C(=O)O)CC4)cc3)cc2)c1Nc1cccc(OC(C)C2CCCCC2)n1` (centres unmarked) [Compound 1-140, 1-(4′-{4-[6-(1-Cyclohexyl-ethoxy)-pyridin-2-ylamino]-3-methyl-isoxazol-5-yl}-biphenyl-4-yl)-cyclopropanecarboxylic acid] was tested. Which IC50 did it give?
**A.** < 300 nM

**Q.** How did the IC50 turn out when `Cc1noc(-c2ccc(-c3ccc(C4(C(=O)O)CC4)cc3)cc2)c1Nc1cccc(Cc2ccccc2F)n1` [Compound 1-84, 1-(4′-{4-[6-(2-Fluoro-benzyl)-pyridin-2-ylamino]-3-methyl-isoxazol-5-yl}-biphenyl-4-yl)-cyclopropanecarboxylic acid] was run?
**A.** < 300 nM

**Q.** With `Cc1noc(-c2ccc(-c3ccc(C4(C(=O)O)CC4)cc3)cc2)c1Nc1cncc(-c2cccc(F)c2Cl)c1` [Compound 1-155, 1-(4′-{4-[5-(2-Chloro-3-fluoro-phenyl)-pyridin-3-ylamino]-3-methyl-isoxazol-5-yl}-biphenyl-4-yl)-cyclopropanecarboxylic acid] as the compound, how does the IC50 read?
**A.** < 300 nM
